Data: PMC8224038, “Anti-Leukemic Properties of Aplysinopsin Derivative EE-84 Alone and Combined to BH3 Mimetic A-1210477” (Marine Drugs, 2021)

System: K562 cells
Experiment: Cell cycle analysis (PI, FACS)
Type: cell-based, human
Experimental: Cells were collected and fixed in 70% ethanol. DNA was stained with propidium iodide (PI) solution (1 μg/mL, Sigma-Aldrich, St. Louis, MO, USA) in 1XPBS (Biosesang, Seongnam, Korea) for 30 min at 37 °C, supplemented with RNase A (100 μg/mL, Roche, Basel, Switzerland). Samples were analyzed by flow cytometry using the FACSCalibur^TM system, Becton Dickinson (BD) Biosciences (San Jose, CA, USA). Data were recorded statistically (10,000 events/sample) using the Cell Quest software (BD Biosciences) and analyzed using Flow-Jo 8.8.5 software (Tree Star, Inc., Ashland, OR, USA).

SMILES: COc1ccc2c(c1)c(C(=O)C(=O)Nc1sc3c(c1C(C)=O)CC(C)CC3)cn2Cc1ccccc1 (stereo not drawn) [EE-84, N-(3-Acetyl-4,5,6,7-Tetrahydro-5-Methylbenzo[b]Thiophen-2-yl)-2-(1-Benzyl-5-Methoxy-1H-Indol-3-yl)-2-Oxoacetamide]
- G1 cell cycle phase (K562, 48 h, EE-84 10 μM): 59.59 ± 1.12%
- G2/M cell cycle phase (K562, 48 h, EE-84 10 μM): 18.64 ± 0.75%
- S cell cycle phase (K562, 48 h, EE-84 10 μM): 20.30 ± 1.68%
- Sub-G1 cell cycle phase (K562, 48 h, EE-84 10 μM): 1.48 ± 0.81%
- G1 cell cycle phase (K562, 48 h, EE-84 30 μM): 61.11 ± 1.58%
- G2/M cell cycle phase (K562, 48 h, EE-84 30 μM): 13.25 ± 0.32%
- S cell cycle phase (K562, 48 h, EE-84 30 μM): 20.99 ± 0.83%
- Sub-G1 cell cycle phase (K562, 48 h, EE-84 30 μM): 4.65 ± 2.42%
- G1 cell cycle phase (K562, 48 h, EE-84 50 μM): 58.40 ± 2.81%
- G2/M cell cycle phase (K562, 48 h, EE-84 50 μM): 12.86 ± 1.46%
- S cell cycle phase (K562, 48 h, EE-84 50 μM): 20.41 ± 1.84%
- Sub-G1 cell cycle phase (K562, 48 h, EE-84 50 μM): 8.34 ± 1.51%
- G1 cell cycle phase (K562, 72 h, EE-84 10 μM): 60.83 ± 2.33%
- G2/M cell cycle phase (K562, 72 h, EE-84 10 μM): 17.57 ± 0.90%
- S cell cycle phase (K562, 72 h, EE-84 10 μM): 17.52 ± 4.24%
- Sub-G1 cell cycle phase (K562, 72 h, EE-84 10 μM): 4.08 ± 2.80%
- G1 cell cycle phase (K562, 72 h, EE-84 30 μM): 55.09 ± 2.26%
- G2/M cell cycle phase (K562, 72 h, EE-84 30 μM): 17.03 ± 2.69%
- S cell cycle phase (K562, 72 h, EE-84 30 μM): 21.55 ± 1.64%
- Sub-G1 cell cycle phase (K562, 72 h, EE-84 30 μM): 6.33 ± 0.74%
- G1 cell cycle phase (K562, 72 h, EE-84 50 μM): 52.03 ± 2.99%
- G2/M cell cycle phase (K562, 72 h, EE-84 50 μM): 15.08 ± 2.89%
- S cell cycle phase (K562, 72 h, EE-84 50 μM): 19.85 ± 1.33%
- Sub-G1 cell cycle phase (K562, 72 h, EE-84 50 μM): 13.03 ± 1.19%
